PubChem BioAssay (NCI)
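Exposure lasted 48 hours, with cells grown in 96-well plates and compounds tested at five concentrations. GI50 is the concentration that inhibits growth by half. TGI denotes the concentration required for complete inhibition of growth.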

Tests used:
Experiment in all cases: NCI-60 cell line screen, 48 h
786-0 renal = system: 786-0 renal
HL-60(TB) leukemia = system: HL-60(TB) leukemia
HOP-62 NSCLC = system: HOP-62 NSCLC
IGROV1 ovarian = system: IGROV1 ovarian
KM12 colon = system: KM12 colon
NCI-H460 lung = system: NCI-H460 lung
OVCAR-3 ovarian = system: OVCAR-3 ovarian
RPMI-8226 leukemia = system: RPMI-8226 leukemia
RXF 393 renal = system: RXF 393 renal
T-47D breast = system: T-47D breast

O=S1(=O)OCc2ccccc21
TGI (786-0 renal): > 100 µM | TGI (HL-60(TB) leukemia): > 100 µM | TGI (HOP-62 NSCLC): 42.3 µM | TGI (IGROV1 ovarian): > 100 µM | TGI (KM12 colon): > 100 µM | TGI (NCI-H460 lung): > 100 µM | TGI (OVCAR-3 ovarian): > 100 µM | TGI (RPMI-8226 leukemia): > 100 µM | TGI (RXF 393 renal): > 100 µM | TGI (T-47D breast): > 100 µM

OCCNC(=S)Nc1ccc(-c2nc(N3C[C@H]4CC[C@@H](C3)O4)c3cccn3n2)cc1
GI50 (786-0 renal): 0.0677 µM | TGI (786-0 renal): 12.8 µM | GI50 (HL-60(TB) leukemia): 1.22 µM | TGI (HL-60(TB) leukemia): > 32.5 µM | GI50 (HOP-62 NSCLC): 0.0324 µM | TGI (HOP-62 NSCLC): 0.662 µM | GI50 (IGROV1 ovarian): 0.0165 µM | TGI (IGROV1 ovarian): 0.15 µM | GI50 (KM12 colon): 0.0987 µM | TGI (KM12 colon): 12.6 µM | GI50 (NCI-H460 lung): 0.0312 µM | TGI (NCI-H460 lung): 19.4 µM | GI50 (OVCAR-3 ovarian): 0.0664 µM | TGI (OVCAR-3 ovarian): 4.39 µM | GI50 (RPMI-8226 leukemia): 0.0371 µM | TGI (RPMI-8226 leukemia): 1.47 µM | GI50 (RXF 393 renal): < 0.0135 µM | TGI (RXF 393 renal): 0.131 µM | GI50 (T-47D breast): < 0.01 µM | TGI (T-47D breast): 0.0389 µM

COc1ccc(C2CC(c3ccc4ccccc4c3)=NN2/C=C2\SC(=S)N(NC(=O)Cc3ccccc3Nc3c(Cl)cccc3Cl)C2=O)cc1 (centres undefined)
GI50 (786-0 renal): 0.508 µM | TGI (786-0 renal): > 38.1 µM | GI50 (HL-60(TB) leukemia): 0.404 µM | TGI (HL-60(TB) leukemia): 2.89 µM | GI50 (HOP-62 NSCLC): 0.958 µM | TGI (HOP-62 NSCLC): > 49.9 µM | GI50 (IGROV1 ovarian): 0.588 µM | TGI (IGROV1 ovarian): > 42 µM | GI50 (KM12 colon): 0.37 µM | TGI (KM12 colon): > 33.5 µM | GI50 (NCI-H460 lung): 0.388 µM | TGI (NCI-H460 lung): > 34 µM | GI50 (OVCAR-3 ovarian): 0.343 µM | GI50 (RPMI-8226 leukemia): 0.309 µM | TGI (RPMI-8226 leukemia): 1.78 µM | GI50 (RXF 393 renal): 0.282 µM | TGI (RXF 393 renal): 1.16 µM | GI50 (T-47D breast): 0.788 µM | TGI (T-47D breast): 98.8 µM

CS(=O)(=O)c1nccc(-c2c(-c3cccc(OCc4ccccc4)c3)nc3sccn23)n1
GI50 (786-0 renal): 12.9 µM | TGI (786-0 renal): > 100 µM | GI50 (HL-60(TB) leukemia): 3.97 µM | TGI (HL-60(TB) leukemia): 27 µM | GI50 (HOP-62 NSCLC): > 80.9 µM | TGI (HOP-62 NSCLC): > 100 µM | GI50 (IGROV1 ovarian): 10.3 µM | TGI (IGROV1 ovarian): > 100 µM | GI50 (KM12 colon): 4.64 µM | TGI (KM12 colon): 9.98 µM | GI50 (NCI-H460 lung): > 83.5 µM | TGI (NCI-H460 lung): > 100 µM | GI50 (OVCAR-3 ovarian): 14.4 µM | TGI (OVCAR-3 ovarian): > 100 µM | GI50 (RPMI-8226 leukemia): 9.24 µM | TGI (RPMI-8226 leukemia): > 32.3 µM | GI50 (RXF 393 renal): 15.3 µM | TGI (RXF 393 renal): > 100 µM | GI50 (T-47D breast): 11.7 µM | TGI (T-47D breast): > 100 µM

COc1cc(/C=C/C(=O)c2ccc(F)cc2)ccc1OCCCCOc1cc2c(cc1OC)C(=O)N1CCCC1C=N2 (centres undefined)
GI50 (786-0 renal): 0.989 µM | TGI (786-0 renal): 7.74 µM | GI50 (HL-60(TB) leukemia): 0.477 µM | TGI (HL-60(TB) leukemia): 1.21 µM | GI50 (HOP-62 NSCLC): 0.952 µM | TGI (HOP-62 NSCLC): 12.5 µM | GI50 (IGROV1 ovarian): 1.83 µM | TGI (IGROV1 ovarian): 3.59 µM | GI50 (KM12 colon): 0.762 µM | TGI (KM12 colon): 7.71 µM | GI50 (NCI-H460 lung): 0.83 µM | TGI (NCI-H460 lung): 6.67 µM | GI50 (OVCAR-3 ovarian): 0.808 µM | TGI (OVCAR-3 ovarian): 2 µM | GI50 (RPMI-8226 leukemia): 0.218 µM | TGI (RPMI-8226 leukemia): 1.31 µM | GI50 (RXF 393 renal): 1.07 µM | TGI (RXF 393 renal): 9.21 µM | GI50 (T-47D breast): 1.42 µM | TGI (T-47D breast): > 33.2 µM

NNC(=O)C(O)C(O)C(O)CO (centres undefined)
TGI (786-0 renal): > 100 µM | TGI (HL-60(TB) leukemia): > 100 µM | TGI (HOP-62 NSCLC): > 100 µM | TGI (IGROV1 ovarian): > 100 µM | TGI (KM12 colon): > 100 µM | TGI (NCI-H460 lung): > 100 µM | TGI (OVCAR-3 ovarian): > 100 µM | TGI (RPMI-8226 leukemia): > 100 µM | TGI (RXF 393 renal): > 100 µM | TGI (T-47D breast): > 100 µM

C/C(=N\N)C(CN1CCCCC1)C(c1ccccc1)c1c(O)c2ccccc2oc1=O (centres undefined)
TGI (786-0 renal): > 100 µM | TGI (HL-60(TB) leukemia): > 100 µM | TGI (HOP-62 NSCLC): > 100 µM | TGI (IGROV1 ovarian): > 100 µM | TGI (KM12 colon): > 100 µM | TGI (NCI-H460 lung): > 100 µM | TGI (OVCAR-3 ovarian): > 100 µM | TGI (RPMI-8226 leukemia): > 100 µM | TGI (RXF 393 renal): > 100 µM | TGI (T-47D breast): > 100 µM

CC/C=C\C[C@H](O)C/C=C1/C(=O)C=C[C@@H]1C/C=C\CCCC(=O)OCCS(=O)(=O)c1ccccc1
GI50 (786-0 renal): 3.22 µM | TGI (786-0 renal): 8.61 µM | GI50 (HL-60(TB) leukemia): 2.84 µM | TGI (HL-60(TB) leukemia): 12.3 µM | GI50 (HOP-62 NSCLC): 3.47 µM | TGI (HOP-62 NSCLC): 10.5 µM | GI50 (IGROV1 ovarian): 6.26 µM | TGI (IGROV1 ovarian): 23.3 µM | GI50 (KM12 colon): 2.09 µM | TGI (KM12 colon): 6.05 µM | GI50 (NCI-H460 lung): 2.53 µM | TGI (NCI-H460 lung): 6.35 µM | GI50 (OVCAR-3 ovarian): 3.19 µM | TGI (OVCAR-3 ovarian): 12 µM | GI50 (RPMI-8226 leukemia): 2.7 µM | TGI (RPMI-8226 leukemia): 8.25 µM | GI50 (RXF 393 renal): 2.75 µM | TGI (RXF 393 renal): 6.47 µM | GI50 (T-47D breast): 3.76 µM | TGI (T-47D breast): 18.7 µM

C=C(C)[C@@H]1CC[C@]2(C(=O)N3CCN(C)CC3)CC[C@]3(C)[C@H](CC[C@@H]4[C@@]5(C)C/C(=C/c6ccncc6)[C@H](O)C(C)(C)[C@@H]5CC[C@]43C)[C@@H]12
GI50 (786-0 renal): 2.71 µM | TGI (786-0 renal): 13.3 µM | GI50 (HL-60(TB) leukemia): 2.29 µM | TGI (HL-60(TB) leukemia): 5.58 µM | GI50 (HOP-62 NSCLC): 10.1 µM | TGI (HOP-62 NSCLC): 24.7 µM | GI50 (IGROV1 ovarian): 6.62 µM | TGI (IGROV1 ovarian): 37.7 µM | GI50 (KM12 colon): 3.86 µM | TGI (KM12 colon): 17.7 µM | GI50 (NCI-H460 lung): 3.95 µM | TGI (NCI-H460 lung): 17 µM | GI50 (OVCAR-3 ovarian): 4.82 µM | TGI (OVCAR-3 ovarian): 17.2 µM | GI50 (RPMI-8226 leukemia): 3.01 µM | TGI (RPMI-8226 leukemia): 17 µM | GI50 (RXF 393 renal): 2.89 µM | TGI (RXF 393 renal): 10.5 µM | GI50 (T-47D breast): 3.02 µM | TGI (T-47D breast): 22.4 µM
